Measurements published in US9434711B2 (Janssen Pharmaceutica, NV, priority 2007, dated 2016).
pIC50: −log10 of the molar value. Read-outs that look alike come from different tables or passages of the source.

Molecular target: canine TRPM8 (Canis lupus familiaris, UniProt Q1A7N1)
Test: In Vitro Canine TRPM8 Functional Assay (Ca2+ fluorescence, icilin activation)
Type: cell-based
Conditions: for inhibition at 0.5 µM / % Inh @ 0.5 (μM): compound at 0.5 μM; for inhibition at 0.5 µM: read-out: % Inh @ 0.5
Description: The functional activity of compounds of the formula (I) was determined by measuring changes in intracellular calcium concentration using a Ca^2+-sensitive fluorescent dye. The changes in fluorescent signal were monitored by a fluorescence plate reader, either a FLIPR™ (Molecular Devices) or FDSS (Hamamatsu).
At 24 hrs prior to assay, HEK293 cells stably expressing canine TRPM8 were seeded in culture medium in black wall, clear-base poly-D-lysine coated 384-well plates (BD Biosciences, NJ, USA) and grown overnight in 5% CO2 at 37° C. On assay day, growth media was removed and cells were loaded with Calcium 3 Dye (Molecular Devices) for 35 min at 37° C., under 5% CO2 and then for 25 min at room temperature and atmosphere. Subsequently, cells were tested for agonist-induced increases in intracellular Ca^2+ levels using FLIPR™ or FDSS. Cells were challenged with a compound of the Formula (I) (at varying concentrations) and intracellular Ca^2+ was measured for 5 min prior to the addition of icilin to all wells to achieve a final concentration that produces approximately an 80% maximal response. EC50 or IC50 values for compounds of the present invention were determined from eight-point dose-response studies. Curves were generated using the average of quadruplicate wells for each data point.

[1] = canine TRPM8, icilin activation
[2] = HEK293 cells stably expressing canine TRPM8, icilin activation, eight-point dose-response, read-out: IC50
[3] = compound at 0.2 μM, canine TRPM8, icilin activation, read-out: % Inh @ 0.2

Sequence of canine TRPM8 (Q1A7N1 1-1104): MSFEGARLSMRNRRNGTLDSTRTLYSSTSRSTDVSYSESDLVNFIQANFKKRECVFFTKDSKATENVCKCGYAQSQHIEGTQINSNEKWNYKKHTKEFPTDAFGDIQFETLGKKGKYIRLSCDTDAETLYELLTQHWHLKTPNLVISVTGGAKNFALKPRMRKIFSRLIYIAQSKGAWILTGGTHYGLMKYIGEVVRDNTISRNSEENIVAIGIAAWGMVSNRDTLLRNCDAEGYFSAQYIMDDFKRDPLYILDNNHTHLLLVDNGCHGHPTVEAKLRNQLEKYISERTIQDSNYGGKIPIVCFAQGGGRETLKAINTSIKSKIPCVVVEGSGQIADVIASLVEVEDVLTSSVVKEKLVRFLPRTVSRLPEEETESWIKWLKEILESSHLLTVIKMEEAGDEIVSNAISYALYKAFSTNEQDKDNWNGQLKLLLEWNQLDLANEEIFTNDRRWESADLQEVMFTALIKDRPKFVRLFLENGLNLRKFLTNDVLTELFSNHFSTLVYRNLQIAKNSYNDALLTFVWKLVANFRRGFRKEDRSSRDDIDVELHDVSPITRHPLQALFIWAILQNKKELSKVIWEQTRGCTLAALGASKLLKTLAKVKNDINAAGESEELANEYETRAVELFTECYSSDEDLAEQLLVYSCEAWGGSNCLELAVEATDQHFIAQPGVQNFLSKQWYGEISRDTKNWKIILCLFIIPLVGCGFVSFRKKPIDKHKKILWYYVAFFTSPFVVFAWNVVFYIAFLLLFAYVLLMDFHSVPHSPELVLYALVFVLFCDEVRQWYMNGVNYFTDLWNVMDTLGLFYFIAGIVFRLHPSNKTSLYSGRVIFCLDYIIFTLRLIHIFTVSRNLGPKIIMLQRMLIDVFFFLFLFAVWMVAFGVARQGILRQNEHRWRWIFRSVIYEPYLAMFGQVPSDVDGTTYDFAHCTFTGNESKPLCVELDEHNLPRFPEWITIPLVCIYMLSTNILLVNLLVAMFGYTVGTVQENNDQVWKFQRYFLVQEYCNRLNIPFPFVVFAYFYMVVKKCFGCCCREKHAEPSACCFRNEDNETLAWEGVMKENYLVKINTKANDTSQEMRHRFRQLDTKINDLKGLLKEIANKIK

| inhibition at 0.5 µM [1] [%] | pIC50 [2] | inhibition at 0.2 µM [3] [%] | SMILES | also measured |
| --- | --- | --- | --- | --- |
| 65 |  |  | O=S(=O)(c1ccccc1)N(Cc1ccncc1)c1cc2ccccc2s1 [Compound 54, N-(Benzo[b]thiophen-2-yl)-N-(pyridin-4-ylmethyl)-benzenesulfonamide] |  |
| 99 | 7.18 |  | O=[N+]([O-])c1ccccc1CN(c1cc2ccccc2s1)S(=O)(=O)c1ccccc1 [Compound 55, N-(Benzo[b]thiophen-2-yl)-N-(2-nitro-benzyl)-benzenesulfonamide] |  |
| 99 | 6.99 |  | O=S(=O)(c1ccccc1)N(Cc1ccccc1OC(F)(F)F)c1cc2ccccc2s1 [Compound 56, N-(Benzo[b]thiophen-2-yl)-N-(2-trifluoromethoxy-benzyl)-benzenesulfonamide] |  |
| 100 | 6.97 |  | O=S(=O)(c1ccccc1)N(Cc1cccc(OC(F)(F)F)c1)c1cc2ccccc2s1 [Compound 57, N-(Benzo[b]thiophen-2-yl)-N-(3-trifluoromethoxy-benzyl)-benzenesulfonamide] |  |
| 98 | 7.34 |  | O=S(=O)(c1ccccc1)N(Cc1ccc(OC(F)(F)F)cc1)c1cc2ccccc2s1 [Compound 58, N-(Benzo[b]thiophen-2-yl)-N-(4-trifluoromethoxy-benzyl)-benzenesulfonamide] |  |
| 98 | 7.35 |  | O=S(=O)(c1ccccc1)N(Cc1ccccc1)c1cc2ccccc2s1 [Compound 59, N-(Benzo[b]thiophen-2-yl)-N-(benzyl)-benzenesulfonamide] |  |
| 97 | 7.55 |  | COc1cc(CN(c2cc3ccccc3s2)S(=O)(=O)c2ccccc2)ccc1F [Compound 60, N-(Benzo[b]thiophen-2-yl)-N-(4-fluoro-3-methoxy-benzyl)-benzenesulfonamide] |  |
| 95 | 7.28 |  | O=S(=O)(c1ccccc1)N(Cc1ccc(F)c(C(F)(F)F)c1)c1cc2ccccc2s1 [Compound 61, N-(Benzo[b]thiophen-2-yl)-N-(4-fluoro-3-trifluoromethyl-benzyl)-benzenesulfonamide] |  |
|  | 7.72 | 96 | COc1ccc(S(=O)(=O)N(Cc2ccc(F)c(C(F)(F)F)c2)c2sc3ccccc3c2C)cc1F [Compound 64, N-(4-Fluoro-3-trifluoromethyl-benzyl)-N-(3-methyl-benzo[b]thiophen-2-yl)-3-fluoro-4-methoxybenzenesulfonamide] |  |
|  | 7.77 | 97 | Cc1c(N(Cc2ccc(F)c(C(F)(F)F)c2)S(=O)(=O)c2ccc3ncsc3c2)sc2ccccc12 [Compound 65, N-(4-Fluoro-3-trifluoromethyl-benzyl)-N-(3-methyl-benzo[b]thiophen-2-yl)-benzothiazole-6-sulfonamide] |  |
|  | 8.40 | 96 | Cc1c(N(Cc2ccc(F)c(C(F)(F)F)c2)S(=O)(=O)c2ccc3[nH]c(=O)oc3c2)sc2ccccc12 [Compound 66, N-(4-Fluoro-3-trifluoromethyl-benzyl)-N-(3-methyl-benzo[b]thiophen-2-yl)-2-oxo-2,3-dihydro-benzooxazole-6-sulfonamide] |  |
|  | 7.26 |  | Cc1c(N(Cc2ccc(F)c(C(F)(F)F)c2)S(=O)(=O)c2ccc3c(c2)NC(=O)CO3)sc2ccccc12 [Compound 67] | % Inh @ 0.2 (μM) (compound at 0.2 μM, canine TRPM8, icilin activation): 77% |
|  | 8.70 | 99 | Cc1c(N(Cc2ccc(F)c(C(F)(F)F)c2)S(=O)(=O)c2ccc3c(c2)OCCN3C)sc2ccccc12 [Compound 68, N-(4-Fluoro-3-trifluoromethyl-benzyl)-N-(3-methyl-benzo[b]thiophen-2-yl)-4-methyl-3,4-dihydro-2H-benzo[1,4]oxazine-7-sulfonamide] |  |
|  | 8.52 | 96 | Cc1c(N(Cc2ccc(F)c(C(F)(F)F)c2)S(=O)(=O)c2ccc(-c3csnn3)cc2)sc2ccccc12 [Compound 69, N-(4-Fluoro-3-trifluoromethyl-benzyl)-N-(3-methyl-benzo[b]thiophen-2-yl)-4-[1,2,3]thiadiazol-4-yl-benzenesulfonamide] |  |
|  | 8.15 | 99 | Cc1c(N(Cc2ccc(F)c(C(F)(F)F)c2)S(=O)(=O)c2cccc(Oc3ccccc3)c2)sc2ccccc12 [Compound 70, N-(4-Fluoro-3-trifluoromethyl-benzyl)-N-(3-methyl-benzo[b]thiophen-2-yl)-3-phenoxy-benzenesulfonamide] |  |
|  |  |  | COC(=O)CCS(=O)(=O)N(Cc1ccc(F)c(C(F)(F)F)c1)c1sc2ccccc2c1C [Compound 71] | pIC50: 7.74; inhibition at 0.2 µM (read-out: % Inh @ 0.2 (μM)): 98% |
|  | 7.59 | 99 | Cc1nc(O)nc(O)c1S(=O)(=O)N(Cc1ccc(F)c(C(F)(F)F)c1)c1sc2ccccc2c1C [Compound 72, N-(3-Methyl-benzo[b]thiophen-2-yl)-N-(4-fluoro-3-trifluoromethylbenzyl)-(2,4-dihydroxy-6-methyl-pyrimidine-5-yl)sulfonamide] |  |
|  |  | 24 | Cc1c(N(Cc2ccc(F)c(C(F)(F)F)c2)S(=O)(=O)c2cccc3c2CN(C(=O)C(F)(F)F)CC3)sc2ccccc12 [Compound 73, N-(4-Fluoro-3-trifluoromethyl-benzyl)-N-(3-methyl-benzo[b]thiophen-2-yl)-2-(2,2,2-trifluoro-acetyl)-1,2,3,4-tetrahydro-isoquinoline-8-sulfonamide] |  |
|  | 7.68 | 97 | Cc1nn(C)c(C)c1S(=O)(=O)N(Cc1ccc(F)c(C(F)(F)F)c1)c1sc2ccccc2c1C [Compound 74, N-(4-Fluoro-3-trifluoromethyl-benzyl)-N-(3-methyl-benzo[b]thiophen-2-yl)-1,3,5-trimethyl-1H-pyrazole-4-sulfonamide] |  |
|  | 7.74 | 98 | Cc1nc(C)c(S(=O)(=O)N(Cc2ccc(F)c(C(F)(F)F)c2)c2sc3ccccc3c2C)s1 [Compound 75, N-(4-Fluoro-3-trifluoromethyl-benzyl)-N-(3-methyl-benzo[b]thiophen-2-yl)-2,4-dimethyl-thiazole-5-sulfonamide] |  |
|  | 7.68 | 95 | Cc1c(N(Cc2ccc(F)c(C(F)(F)F)c2)S(=O)(=O)c2ccc(Cl)nc2)sc2ccccc12 [Compound 76, N-(4-Fluoro-3-trifluoromethyl-benzyl)-N-(3-methyl-benzo[b]thiophen-2-yl)-6-chloro-pyridine-3-sulfonamide] |  |
|  | 7.66 | 97 | Cc1c(N(Cc2ccc(F)c(C(F)(F)F)c2)S(=O)(=O)c2cccnc2Cl)sc2ccccc12 [Compound 77, N-(4-Fluoro-3-trifluoromethyl-benzyl)-N-(3-methyl-benzo[b]thiophen-2-yl)-2-chloro-pyridine-3-sulfonamide] |  |
|  | 7.65 | 102 | O=S(=O)(c1ccsc1)N(Cc1ccc(F)c(C(F)(F)F)c1)c1cc2ccccc2s1 [Compound 78, N-(Benzo[b]thiophen-2-yl)-N-(4-fluoro-3-trifluoromethyl-benzyl)-thiophene-3-sulfonamide] |  |
|  |  | 69 | Cc1c(N(Cc2ccc(F)c(C(F)(F)F)c2)S(=O)(=O)c2cccc3c2CNCC3)sc2ccccc12 [Compound 79, N-(4-Fluoro-3-trifluoromethyl-benzyl)-N-(3-methyl-benzo[b]thiophen-2-yl)-1,2,3,4-tetrahydro-isoquinoline-8-sulfonamide] |  |
| 98 | 7.54 |  | O=S(=O)(c1ccccc1)N(CC1CCCCC1)c1sc2ccccc2c1Cl [Compound 80, N-(3-Chloro-benzo[b]thiophen-2-yl)-N-(cyclohexylmethyl)-benzenesulfonamide] |  |
| 87 | 6.50 |  | O=C1CCCN1CCN(c1sc2ccccc2c1Cl)S(=O)(=O)c1ccccc1 [Compound 82, N-(3-Chloro-benzo[b]thiophen-2-yl)-N-[2-(2-oxo-pyrrolidin-1-yl)-ethyl]-benzenesulfonamide] |  |
| 101 | 7.32 |  | CCCCN(c1sc2ccccc2c1Cl)S(=O)(=O)c1ccccc1 [Compound 83, N-(Butyl)-N-(3-chloro-benzo[b]thiophen-2-yl)-benzenesulfonamide] |  |
| 100 | 7.46 |  | C=CCN(c1sc2ccccc2c1Cl)S(=O)(=O)c1ccccc1 [Compound 84, N-(Allyl)-N-(3-chloro-benzo[b]thiophen-2-yl)-benzenesulfonamide] |  |
| 100 |  |  | O=S(=O)(c1ccccc1)N(CCc1ccccc1)c1sc2ccccc2c1Cl [Compound 85, N-(3-Chloro-benzo[b]thiophen-2-yl)-N-(phenethyl)-benzenesulfonamide] |  |

| SMILES | inhibition at 0.5 µM [1] [%] | pIC50 [2] | inhibition at 0.2 µM [3] [%] | also measured |
| --- | --- | --- | --- | --- |
| Cc1ccccc1CN(c1cc2ccccc2s1)S(=O)(=O)c1ccccc1 [Compound 62] |  | 7.24 |  | % Inh @ 0.5 (μM) [1]: 98% |
| Cc1cccc(CN(c2cc3ccccc3s2)S(=O)(=O)c2ccccc2)c1 [Compound 63] |  | 7.13 |  | % Inh @ 0.5 (μM) [1]: 98% |
| CC(C)(C)OCCN(c1sc2ccccc2c1Cl)S(=O)(=O)c1ccccc1 [Compound 81, N-(2-tert-Butoxy-ethyl)-N-(3-chloro-benzo[b]thiophen-2-yl)-benzenesulfonamide] | 99 | 7.82 |  |  |
